Earlier results on three compounds are cited in patent US7101871B2, “Beta-amino heterocyclic dipeptidyl peptidase inhibitors for the treatment or prevention of diabetes” (Merck & Co., Inc., priority 2002, dated 2006).

Data set [1] relates to cardiac allograft. The following applies: rats; doubled from day 7 to day 14.
Data set [2] has as its system hematopoiesis. The following applies: mouse, cyclophosphamide-induced neutropenia (WO 99/56753).
The test system of data set [3] is GRF degradation in plasma.

For the compound `CC(C)N1CCC(c2ccccc2)(c2ccccc2)CC1` [Prodipine, Pro-Pro-diphenyl-phosphonate], the cardiac allograft survival in data set [1] is given as 14 day. For `CC(C)[C@H](N)C(=O)N1CCC[C@H]1B(O)O` [Val-Boro-Pro], the effect on hematopoiesis entry in data set [2] is given as “stimulated hematopoiesis”. Turning to `CC[C@H](C)[C@H](N)C(=O)N1CCC[C@H]1C(=O)N[C@H](C(=O)O)[C@@H](C)CC` [diprotin A], the “effect on degradation of GRF to GRF[3-44] in plasma” value in data set [3] is recorded as “prevented”.
